Experiments:
cortical neurons = assay: neurite growth of embryonic mouse neurons (total neurite length/neuron, MAP2 immunostaining); assay type: cell-based
Description: To obtain embryonic mouse neurons for analysis, pregnant female mice were killed by cervical dislocation after exposure to CO2 inhalation. Embryonic neurons were prepared from E18 or P0 mouse hippocampi or cortex and cultured as described previously (Calderon and Kim, J. Neurochem., 90(4):979-88 (2004), errata in J Neurochem., September; 90(6):1540 (2004)), with slight modification. Briefly, hippocampi or cotices were dissected and dissociated by a method using either 0.25% trypsin (Gibco Invitrogen Corporation, Grand Island, N.Y.) in Hank's balanced salt solution (HBSS) or papain (20-30 U/mL) in dissociation media containing cysteine at 37° C. for 15 min. After the dissociation solution was aspirated off, cells were washed with same volume of HBSS, suspended in neurobasal medium (Gibco) containing 2% B27 supplement (Gibco), 1% glutamine/glutamax mix (1:4) (Gibco), 100 U/ml penicillin (Gibco) and 100 μg/ml streptomycin (Gibco), and seeded on poly-D-lysine chambered slides (Lab-Tek, Naperville, Ill.) at a density of 30,000 cells/cm^2. On the second day after seeding, the cells were treated with fatty acids, synaptamide or one of Compounds 1-50 for 48 h. Docosahexaenoic acid (DHA) and oleic acid (OA) were complexed with fatty acid-free bovine serum albumin (BSA; Sigma, St Louis, Mo.) in the presence of α-tocopherol (Sigma) under an argon atmosphere and darkness to prevent oxidation of the fatty acids. The mixture was mixed with fresh Neurobasal medium containing B27 supplement, glutamine/glutamax mix and antibiotics. Final concentrations of α-tocopherol and BSA in the culture medium were 40 μM and 0.01%, respectively. Alternatively, DHA, OA, synaptamide, or one of Compounds 1-50 were dissolved in DMSO and applied directly together with α-tocopherol. In such case, the final concentration of DMSO is less than 0.005%. All stock solutions were aliquoted under argon and stored at −70° C.
Cells were fixed with […] (Sigma) in PBS (pH 7.4) for 30 min. After permeabilization with 0.1% Triton X-100 (Sigma), cells were blocked for 1 h at 37° C. with PBS containing 10% goat serum (Gibco), and then incubated with the primary antibody against microtubule-associated protein (MAP2, mouse monoclonal 1:250; Sigma). After washing with PBS, cells were incubated with the corresponding Cy2-, Cy3-conjugated secondary antibody (Jackson Immunoresearch Laboratories Inc., West Grove, Pa.). For the nuclear staining, 0.06% 4,6-Diamidino-2-Phenylindole (Sigma) was used. After immunostaining, images were collected using an inverted motorized 1×81 Olympus (Melville, N.Y.) and the neurite length was analyzed with Metamorph software (Molecular Devices Corporation, Downingtown, Pa.). To minimize bias, neurons were evaluated blindly without the knowledge of sample identity. Four to six fields/well were chosen at random and only non-clustered neurons were evaluated to ensure the precision of the measurements. From each well, over 100 neurons were evaluated at 20× magnification for total neurite length/neuron. The data were obtained from triplicate wells and the experiments were repeated at least three times.
FIG. 2 provides graphical results of the data shown in Table 2, expressed as total neurite length per neuron. FIG. 3 provides graphical results of these experiments for compounds 11-50 (having designations as provided in Table 1, above), expressed as relative neurite length as compared to untreated controls. FIG. 4 provides graphical results of these experiments for compounds 1-10 (having designations as provided in Table 1, above), as applied to hippocampal neurons.
An additional assay was performed in which Compounds (A8), 4(A10), and 7(A9) were applied at varying dosages (from 10^−5 nM to 10 nM; 10^−5 nM, 10^−4 nM, 10^−2 nM, 0.1 nM, 1 nM, and 10 nM) as compared to DHA, synaptamide, and oleic acid. Neurite growth was measured at each dosage. Results of this assay are provided at FIG. 1.

FAAH = molecular target: T1, FAAH (Homo sapiens, UniProt O00519); assay: time course FAAH enzyme assay; assay type: in vitro ADME; conditions: for % remaining: 1 mM, pH 9
T1 sequence (O00519 1-579): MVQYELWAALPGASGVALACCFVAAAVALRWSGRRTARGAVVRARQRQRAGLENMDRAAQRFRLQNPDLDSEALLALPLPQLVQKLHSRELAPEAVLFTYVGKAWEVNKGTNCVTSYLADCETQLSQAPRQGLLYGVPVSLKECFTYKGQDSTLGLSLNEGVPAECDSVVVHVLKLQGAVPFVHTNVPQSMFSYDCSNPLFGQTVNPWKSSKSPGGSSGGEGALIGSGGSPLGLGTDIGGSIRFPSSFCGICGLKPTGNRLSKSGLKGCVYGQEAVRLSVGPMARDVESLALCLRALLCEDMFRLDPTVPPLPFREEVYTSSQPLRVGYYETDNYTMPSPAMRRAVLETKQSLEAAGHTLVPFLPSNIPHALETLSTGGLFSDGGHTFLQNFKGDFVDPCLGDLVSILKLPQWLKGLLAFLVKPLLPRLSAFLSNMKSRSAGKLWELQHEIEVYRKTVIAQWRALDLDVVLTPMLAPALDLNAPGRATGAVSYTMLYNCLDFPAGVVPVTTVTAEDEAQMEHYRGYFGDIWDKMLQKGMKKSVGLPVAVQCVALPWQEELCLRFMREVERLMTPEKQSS
Description: Method development: The signal was optimized for each compound by ESI positive or negative ionization mode. A MS2 SIM scan was used to optimize the precursor ion and a product ion analysis was used to identify the best fragment for analysis and to optimize the collision energy.
Analysis: Samples were analyzed by LC/MS/MS using a API 3000 coupled with an Shimadzu HPLC and a CTC PAL chilled autosampler, all […] controlled by Analyst software (ABI). After separation on a C18 reverse phase HPLC column (Agilent, Waters, or equivalent). Mobile phase A was 0.1% AcOH in water. Mobile phase B was 0.1% AcOH in methanol. The flow rate was 0.6 mL/min. The gradient program included a 0.5 min hold at 30% B (the starting conditions), followed by a gradient to 100% B over 2.5 min and a 1 min hold at 100% B. The column was then returned to starting conditions and equilibrated over 1.25 min.
Assay Protocol: Assays were performed at 37° C. at pH=9.0 and involved the use of 0.1 U of FAAH. […] Reaction was terminated after an appropriate time by using protein precipitation treatment with acetonitrile (3:1, v/v).

CC/C=C\C/C=C\C/C=C\C/C=C\C/C=C\C/C=C\CCC(=O)NCC(C)(C)O [Compound 1, (4Z,7Z,10Z,13Z,16Z,19Z)—N-(2-hydroxy-2-methylpropyl)docosa-4,7,10,13,16,19-hexaenamide]
Neurite Length/Neuron (mean) (cortical neurons; cortical neurons, 10 nM (FIG. 2), 48 h): 41.3 μm
effect with respect to cortical neurite growth as compared to DHA (cortical neurons; cortical neurons, FIGS. 1, 2): superior effect
dosage at which activity is exhibited as compared to DHA and synaptamide (cortical neurons; dosages 10^-5 nM to 10 nM, FIG. 1): activity at significantly lower dosages
susceptibility to hydrolysis by FAAH (FAAH): less susceptible to hydrolysis by FAAH than synaptamide or AEA
% remaining (FAAH; 0 h): 99%
% remaining (FAAH; 0.5 h): 101%
% remaining (FAAH; 1 h): 85%

From patent publication US9422308B2, “Derivatives of docosahexaenoylethanolamide and uses thereof” (The United States of America, as represented by the …, priority 2012, dated 2016)
